These results are taken from publication PMC12272882, “Ancestral evolution of oxidase activity in a class of (S)-nicotine and (S)-6-hydroxynicotine-degrading flavoenzymes” (The Journal of Biological Chemistry, 2025).

Read-outs that look alike come from different tables or passages of the source.

Test [1] addresses T1, Node D (synthetic construct, UniProt Z9ZYW4GBP2).
T1 construct: ancestral reconstruction; N-terminal MTKAGHSASGEA peptide (from Node D's own predicted N-terminal region), C-terminal His tag, pET29b, E. coli BL21(DE3); 431 positions
Description: absorbance spectrum of purified enzyme. The format is binding. The settings on record: as purified.

The target of the next test is T2, NctB (Shinella sp. HZN7, UniProt A0A075BSX9).
T2 construct: synthetic gene in pET29b, C-terminal His tag, E. coli BL21(DE3); FAD holoenzyme
T2 sequence (A0A075BSX9 whole entry): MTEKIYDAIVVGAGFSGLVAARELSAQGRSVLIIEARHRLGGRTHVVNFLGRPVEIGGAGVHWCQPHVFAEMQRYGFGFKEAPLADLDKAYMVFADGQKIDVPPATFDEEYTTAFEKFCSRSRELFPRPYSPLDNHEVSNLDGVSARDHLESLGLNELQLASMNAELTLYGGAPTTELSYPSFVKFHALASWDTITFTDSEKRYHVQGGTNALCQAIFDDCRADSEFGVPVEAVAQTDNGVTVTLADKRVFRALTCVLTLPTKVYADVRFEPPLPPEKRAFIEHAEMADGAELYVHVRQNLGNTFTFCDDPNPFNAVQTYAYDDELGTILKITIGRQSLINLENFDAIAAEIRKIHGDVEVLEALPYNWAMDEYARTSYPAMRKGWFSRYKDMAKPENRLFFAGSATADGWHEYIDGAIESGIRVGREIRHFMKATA
Description: absorbance spectrum of purified enzyme. The format is binding. The settings on record: as purified.

A further test deals with T3, Node C (synthetic construct, UniProt Z9TTH1JYZ3).
T3 construct: ancestral reconstruction; N-terminal MTKAGHSASGEA peptide added, C-terminal His tag, pET29b, E. coli BL21(DE3); 431 positions
Description: absorbance spectrum of purified enzyme. It is filed as binding. The settings on record: as purified.

For test [2], the target named is T4, Node A (synthetic construct, UniProt Z9LAG0LSP2).
T4 construct: ancestral reconstruction
T4 sequence (Z9LAG0LSP2 1-442): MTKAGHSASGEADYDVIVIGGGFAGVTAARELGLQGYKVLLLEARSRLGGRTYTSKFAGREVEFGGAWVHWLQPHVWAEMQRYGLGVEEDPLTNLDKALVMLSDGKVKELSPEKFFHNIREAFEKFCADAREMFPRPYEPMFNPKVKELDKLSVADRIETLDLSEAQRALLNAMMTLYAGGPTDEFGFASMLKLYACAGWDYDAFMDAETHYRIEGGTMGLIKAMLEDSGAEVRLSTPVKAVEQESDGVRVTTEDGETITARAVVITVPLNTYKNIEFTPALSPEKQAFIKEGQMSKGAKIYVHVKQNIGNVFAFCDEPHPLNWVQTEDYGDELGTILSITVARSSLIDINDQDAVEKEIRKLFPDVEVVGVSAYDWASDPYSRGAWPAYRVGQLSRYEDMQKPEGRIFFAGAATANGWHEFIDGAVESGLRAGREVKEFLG
The test can be described thus: absorbance spectrum of purified enzyme. The format is binding. To be noted: as purified.

The target in another test is T5, Node B (synthetic construct, UniProt Z9QPI4SOH8).
T5 construct: ancestral reconstruction
The test can be described thus: absorbance spectrum of purified enzyme. The format is binding. To be noted: as purified.

For test [3], the target named is T4, Node A. The test can be described thus: anaerobic stopped-flow flavin reduction at […] nm. To be noted: pH 7.5, 4 °C, no O2. It is filed as biochemical.
The test system of test [4] is Node D. To be noted: pH 7.5, 4 °C, no O2; binding to oxidized enzyme; biphasic.
Target sequence in this assay (DOC12272882_5 1-447 A90V): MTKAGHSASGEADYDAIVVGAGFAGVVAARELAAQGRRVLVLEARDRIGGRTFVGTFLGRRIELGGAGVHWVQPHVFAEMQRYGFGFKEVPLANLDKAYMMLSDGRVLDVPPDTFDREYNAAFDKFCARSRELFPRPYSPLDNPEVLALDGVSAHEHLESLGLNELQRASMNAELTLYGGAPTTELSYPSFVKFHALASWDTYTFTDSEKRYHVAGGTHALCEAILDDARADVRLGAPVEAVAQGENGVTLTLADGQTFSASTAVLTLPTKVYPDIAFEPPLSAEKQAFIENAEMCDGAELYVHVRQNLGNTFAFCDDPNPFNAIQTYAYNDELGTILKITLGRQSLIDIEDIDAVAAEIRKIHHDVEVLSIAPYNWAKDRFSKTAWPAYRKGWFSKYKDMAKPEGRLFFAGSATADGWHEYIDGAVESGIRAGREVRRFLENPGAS
Test [5] has as its system Node D. To be noted: pH 7.5, 4 °C, no O2; binding to oxidized enzyme; biphasic. The source holds these as a separate data set.
Target sequence in this assay (DOC12272882_5 1-447 E300T): as the sequence (DOC12272882_5 1-447 A90V) above, with V90A, E300T counted along it
In test [6] the test system is Node D. The settings on record: pH 7.5, 4 °C, no O2; binding to oxidized enzyme; biphasic. This is another data set of the same source.
Target sequence in this assay (DOC12272882_5 1-447 M100V): as the sequence (DOC12272882_5 1-447 A90V) above, with V90A, M100V counted along it

Turning to `Cc1cc2nc3c(=O)[nH]c(=O)nc-3n(C[C@H](O)[C@H](O)[C@H](O)COP(=O)(O)OP(=O)(O)OC[C@H]3O[C@@H](n4cnc5c(N)ncnc54)[C@H](O)[C@@H]3O)c2cc1C` [FAD, flavin adenine dinucleotide], the “absorbance spectrum of purified enzyme” value is “All ASR constructs purified with FAD bound” on Node D [1]; “all of the ASR enzymes and NctB have typical spectra of oxidized FAD” on NctB; “All ASR constructs purified with FAD bound” on Node C; “All ASR constructs purified with FAD bound” at Node A [2]; “All ASR constructs purified with FAD bound” at Node B.

In the case of `CN1CCC[C@H]1c1cccnc1` [(S)-nicotine], the “anaerobic stopped-flow flavin reduction at 450 nm” value on Node A [3] is “Node A reacted poorly with both nicotine and 6OHN”.

For `CN1CCC[C@H]1c1ccc(O)nc1` [6OHN, (S)-6-hydroxynicotine], the “anaerobic stopped-flow flavin reduction at 450 nm” value on Node A [3] is “Node A reacted poorly with both nicotine and 6OHN”. For the same molecule, the Kd result in the test on Node D [4], with Node D [5] and with Node D [6] was “All three mutants were capable of reacting with 6OHN” in each case.
